Experimental data as given in PubChem BioAssay (NCI).
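Growth conditions: 96-well plates. Treatment: test compound, 48 hours, 5 concentrations. Analysis: linear interpolation between bracketing concentrations; unreached endpoints set to highest concentration. Abbreviation: GI50, concentration required for 50% inhibition of growth. TGI: concentration producing complete growth inhibition.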

Columns and labels:
Assay in all cases: NCI tumour cell line growth inhibition, 48 h
786-0 renal = tested on: 786-0 renal
A498 renal = tested on: A498 renal
A549 NSCLC = tested on: A549 NSCLC
ACHN renal = tested on: ACHN renal
BT-549 breast = tested on: BT-549 breast
CAKI-1 renal = tested on: CAKI-1 renal
CCRF-CEM leukemia = tested on: CCRF-CEM leukemia
COLO 205 colon = tested on: COLO 205 colon
DU-145 prostate = tested on: DU-145 prostate
EKVX NSCLC = tested on: EKVX NSCLC
HCC-2998 colon = tested on: HCC-2998 colon
HCT-116 colon = tested on: HCT-116 colon
HCT-15 colon = tested on: HCT-15 colon
HL-60(TB) leukemia = tested on: HL-60(TB) leukemia
HOP-62 NSCLC = tested on: HOP-62 NSCLC
HOP-92 NSCLC = tested on: HOP-92 NSCLC
HS 578T breast = tested on: HS 578T breast
HT29 colon = tested on: HT29 colon
IGROV1 ovarian = tested on: IGROV1 ovarian
K-562 leukemia = tested on: K-562 leukemia
KM12 colon = tested on: KM12 colon
LOX IMVI melanoma = tested on: LOX IMVI melanoma
M14 melanoma = tested on: M14 melanoma
MALME-3M melanoma = tested on: MALME-3M melanoma
MCF7 breast = tested on: MCF7 breast
MDA-MB-231 breast = tested on: MDA-MB-231 breast
MDA-MB-435 = tested on: MDA-MB-435
MOLT-4 leukemia = tested on: MOLT-4 leukemia
NCI-H226 lung = tested on: NCI-H226 lung
NCI-H23 lung = tested on: NCI-H23 lung
NCI-H460 lung = tested on: NCI-H460 lung
NCI/ADR-RES ovarian = tested on: NCI/ADR-RES ovarian
OVCAR-3 ovarian = tested on: OVCAR-3 ovarian
OVCAR-4 ovarian = tested on: OVCAR-4 ovarian
OVCAR-5 ovarian = tested on: OVCAR-5 ovarian
OVCAR-8 ovarian = tested on: OVCAR-8 ovarian
PC-3 prostate = tested on: PC-3 prostate
RPMI-8226 leukemia = tested on: RPMI-8226 leukemia
RXF 393 renal = tested on: RXF 393 renal
SF-268 CNS = tested on: SF-268 CNS
SF-295 CNS = tested on: SF-295 CNS
SF-539 CNS = tested on: SF-539 CNS
SK-MEL-2 melanoma = tested on: SK-MEL-2 melanoma
SK-MEL-28 melanoma = tested on: SK-MEL-28 melanoma
SK-MEL-5 melanoma = tested on: SK-MEL-5 melanoma
SK-OV-3 ovarian = tested on: SK-OV-3 ovarian
SN12C renal = tested on: SN12C renal
SNB-19 CNS = tested on: SNB-19 CNS
SNB-75 CNS = tested on: SNB-75 CNS
SR leukemia = tested on: SR leukemia
SW-620 colon = tested on: SW-620 colon
T-47D breast = tested on: T-47D breast
TK-10 renal = tested on: TK-10 renal
U251 CNS = tested on: U251 CNS
UACC-257 melanoma = tested on: UACC-257 melanoma
UACC-62 melanoma = tested on: UACC-62 melanoma
UO-31 renal = tested on: UO-31 renal

Cc1cc(Nc2cc(N3CCN(C)CC3)nc(C#Cc3ccccc3)n2)n[nH]1
GI50 (786-0 renal): 3.13 µM
TGI (786-0 renal): 14.2 µM
GI50 (A498 renal): 0.703 µM
TGI (A498 renal): 3.68 µM
GI50 (A549 NSCLC): 2.81 µM
TGI (A549 NSCLC): 13.3 µM
GI50 (ACHN renal): 1.06 µM
TGI (ACHN renal): 11.7 µM
GI50 (BT-549 breast): 4.68 µM
TGI (BT-549 breast): 17.8 µM
GI50 (CAKI-1 renal): 0.945 µM
TGI (CAKI-1 renal): 8.71 µM
GI50 (CCRF-CEM leukemia): 6.89 µM
TGI (CCRF-CEM leukemia): > 69.5 µM
GI50 (COLO 205 colon): 1.69 µM
TGI (COLO 205 colon): 4.62 µM
GI50 (DU-145 prostate): 4.18 µM
TGI (DU-145 prostate): 18.2 µM
GI50 (EKVX NSCLC): 11 µM
TGI (EKVX NSCLC): 23.4 µM
GI50 (HCC-2998 colon): 2.71 µM
TGI (HCC-2998 colon): 13.1 µM
GI50 (HCT-116 colon): 1.4 µM
TGI (HCT-116 colon): 12.7 µM
GI50 (HCT-15 colon): 2.23 µM
TGI (HCT-15 colon): 15.5 µM
GI50 (HL-60(TB) leukemia): 2.52 µM
TGI (HL-60(TB) leukemia): 14.8 µM
GI50 (HOP-62 NSCLC): 3.19 µM
TGI (HOP-62 NSCLC): 13.9 µM
GI50 (HOP-92 NSCLC): 0.843 µM
TGI (HOP-92 NSCLC): 4.84 µM
GI50 (HS 578T breast): 1.74 µM
TGI (HS 578T breast): 6.22 µM
GI50 (HT29 colon): 2.02 µM
TGI (HT29 colon): 8.08 µM
GI50 (IGROV1 ovarian): 1.13 µM
TGI (IGROV1 ovarian): 6.05 µM
GI50 (K-562 leukemia): 3.79 µM
TGI (K-562 leukemia): 24.4 µM
GI50 (KM12 colon): 0.35 µM
TGI (KM12 colon): 11.7 µM
GI50 (LOX IMVI melanoma): 1.85 µM
TGI (LOX IMVI melanoma): 12.8 µM
GI50 (M14 melanoma): 1.4 µM
TGI (M14 melanoma): 14.7 µM
GI50 (MALME-3M melanoma): 2 µM
TGI (MALME-3M melanoma): 13.9 µM
GI50 (MCF7 breast): 2.31 µM
TGI (MCF7 breast): 13.1 µM
GI50 (MDA-MB-231 breast): 3.82 µM
TGI (MDA-MB-231 breast): 16.5 µM
GI50 (MDA-MB-435): 3.24 µM
TGI (MDA-MB-435): 16.1 µM
GI50 (MOLT-4 leukemia): 3.46 µM
TGI (MOLT-4 leukemia): 19.2 µM
GI50 (NCI-H226 lung): 2.17 µM
TGI (NCI-H226 lung): 14.3 µM
GI50 (NCI-H23 lung): 3.25 µM
TGI (NCI-H23 lung): 18.5 µM
GI50 (NCI-H460 lung): 2.07 µM
TGI (NCI-H460 lung): 13 µM
GI50 (NCI/ADR-RES ovarian): 4.98 µM
TGI (NCI/ADR-RES ovarian): 28.8 µM
GI50 (OVCAR-3 ovarian): 4.46 µM
TGI (OVCAR-3 ovarian): 17.8 µM
GI50 (OVCAR-4 ovarian): 1.7 µM
TGI (OVCAR-4 ovarian): 13.3 µM
GI50 (OVCAR-5 ovarian): 3.58 µM
TGI (OVCAR-5 ovarian): 18.8 µM
GI50 (OVCAR-8 ovarian): 6.5 µM
TGI (OVCAR-8 ovarian): 22.3 µM
GI50 (PC-3 prostate): 3.17 µM
TGI (PC-3 prostate): 25.4 µM
GI50 (RPMI-8226 leukemia): 12.6 µM
TGI (RPMI-8226 leukemia): 59.3 µM
GI50 (RXF 393 renal): 1.18 µM
TGI (RXF 393 renal): 3.79 µM
GI50 (SF-268 CNS): 3.82 µM
TGI (SF-268 CNS): 16.8 µM
GI50 (SF-295 CNS): 3.39 µM
TGI (SF-295 CNS): 16.8 µM
GI50 (SF-539 CNS): 2.79 µM
TGI (SF-539 CNS): 10.8 µM
GI50 (SK-MEL-2 melanoma): 1.24 µM
TGI (SK-MEL-2 melanoma): 7.9 µM
GI50 (SK-MEL-28 melanoma): 5.05 µM
TGI (SK-MEL-28 melanoma): 18.3 µM
GI50 (SK-MEL-5 melanoma): 4.32 µM
TGI (SK-MEL-5 melanoma): 16.5 µM
GI50 (SK-OV-3 ovarian): 2.16 µM
TGI (SK-OV-3 ovarian): 13.2 µM
GI50 (SN12C renal): 2.4 µM
TGI (SN12C renal): 14.2 µM
GI50 (SNB-19 CNS): 5.59 µM
TGI (SNB-19 CNS): 19.5 µM
GI50 (SNB-75 CNS): 0.725 µM
TGI (SNB-75 CNS): 2.91 µM
GI50 (SR leukemia): 3.47 µM
TGI (SR leukemia): 20.4 µM
GI50 (SW-620 colon): 2.72 µM
TGI (SW-620 colon): 14.4 µM
GI50 (T-47D breast): 4.86 µM
TGI (T-47D breast): 23 µM
GI50 (TK-10 renal): 0.897 µM
TGI (TK-10 renal): 6.79 µM
GI50 (U251 CNS): 3.52 µM
TGI (U251 CNS): 16.9 µM
GI50 (UACC-257 melanoma): 3.58 µM
TGI (UACC-257 melanoma): 15.9 µM
GI50 (UACC-62 melanoma): 2.45 µM
TGI (UACC-62 melanoma): 15.1 µM
GI50 (UO-31 renal): 1.07 µM
TGI (UO-31 renal): 7.28 µM
